In US11964943B2, “3,5-diarylidenyl-n-substituted-piperid-4-one-derived inhibitors of Stat3 pathway activity and uses thereof” (priority 2017, dated 2024):

Legend:
Type in all cases: cell-based
A-10 smooth muscle cells = assay: Microtubule disruption by indirect immunofluorescence; conditions: 30 μM
DU145 cells = assay: Live cell microscopy; conditions: DU145, increasing concentration over 24 h
Method: 5×10^4 DU145 cells were seeded in 8-well chamber slides (Ibidi, Martinsried, Germany). After 24 h, cells were treated with the denoted concentration (μM) IE-8 and intracellular drug accumulation was imaged at 3 h intervals on a live cell microscope (Visitron Systems, Puchheim, Germany) using a 40× oil immersion DIC objective and VisiView® software.
LEDs were used for widefield DIC and fluorescence (436/20 nm excitation and 480/40 nm bandpass filter for (CFP) fluorescence illumination (Visitron Systems). Images were taken with a sCMOS 4.2MPxl digital camera.

[1] = test system: cisplatin-produced DNA interstrand crosslinks; assay: Modified single cell gel electrophoresis (comet) assay
Method: The following procedure for the modified single-cell gel electrophoresis (comet) assay [Hartley. J. M., et al. Drug-DNA Interact. Protoc. Methods Mol. Biol. 2010, 613, 267] was applied to measure DNA interstrand crosslinking (ICL) induced by platinum drug in DU145 and A549 cells. Exponentially growing cells were treated for 1 h with different concentrations of cisplatin and collected after 0, 9, 24 and 48 h. All procedures were carried out on ice. Cells were diluted to a final concentration of 2.5×10^4 cells/ml and irradiated with X-ray (15 Gy) in order to deliver a fixed number of random DNA strand breaks (except for the untreated unirradiated control). Cells were embedded in 1% agarose on a precoated microscope slide, and each sample was prepared in duplicate. […] Images were captured using an on-line CCD camera and analysed using the Komet Analysis software 4.02 (Andor Technology, Belfast, UK). […] 25 cells were analysed. The tail moment for each image was calculated as the product of the percentage of DNA in the comet tail and the distance between the means of the head and tail distributions (Olive P. L., et al, Radiat Res 122, 86). DNA ICL after drug treatment was expressed as the percentage decrease in tail moment compared with irradiated controls calculated by the formula: % Decrease in tail moment=[1−(TMdi−TMcu/Tci−TMcu)]×100 […]

γ-H2AX = γ-H2AX immunofluorescence staining; conditions: DU145, 1.2 μM 18 h then 60 μM cisplatin 1 h
Method: For Stat3, pStat3 staining, 2.5×10^4 cells/ml were plated on 13-mm glass cover slip (VWR) in 24 well plates, allowed to adhere and processed the next day. Cells were treated with IE-8 for 18 h, and subsequently washed in ice cold PBS and fixed with 2% paraformaldehyde PFA (Alfa Aesar) for 10 min at room temperature, followed by permeabilization with PBS containing 0.5% Triton X-100 for 10 min. Cells were blocked in PBS 5% BSA for 1 h at ambient temperature. Respective proteins were identified by incubation for 4 h with anti-Stat3 and anti-pStat3 rabbit polyclonal antibodies (1:1000, Cell signalling) or anti-phospho-Histone H2A.X mouse monoclonal (1:500; Millipore) diluted in a PBS 1% BSA buffer. Cells were incubated with a secondary fluorescent conjugated antibody Alexa Fluor 488 (1:500; Life Technologies) for 2 h at RT. Nuclei were stained using propidium iodide (2 μg/ml; Sigma-Aldrich) and mounted on glass slides with mounting medium (Dako).
To quantify γ-H2AX foci from images obtained using the protocol above, the program CellProfiler was utilized. Each cell nucleus was identified and the number of foci within computationally counted. The number of foci was taken as an average from the first 30 cells measured with a detection threshold of 0.3.

[2] = test system: HCT116-oxaliplatin resistant cells; assay: Colony formation assay with oxaliplatin; conditions: 10 days
Method: HCT116-oxaliplatin res cells were seeded at 2000 cells/well in 6-well plates and allowed to adhere overnight. The next day, oxaliplatin and IE-8 were added simultaneously. First, the specific amount of cells solution was removed from each well and afterwards the same volume of the appropriate drug dilution was added to achieve the right concentration. IE-8 was diluted in DMA. Cells were also treated with Oxaliplatin and IE-8 alone. The plates were left the incubator and the cells were allowed to grow colonies for 10 days. After 10 days the entire cell solution was removed from each well, which was subsequently washed with 500 μl of PBS. 1 ml of cold 100% methanol was added and the plates were incubated for 30 minutes at 4 C. After a second wash, the cells were stained with 1 ml of […] staining dye for 2-3 minutes, rinsed with water, allowed to dry overnight and the colonies were quantified using a gel imaging system (Fusion Fx7) and its in-built colony counter software.

| Compound | effect on microtubules (A-10 smooth muscle cells) | cytoplasmic vacuolisation (DU145 cells) | persistence of DNA ICLs in combination treatment ([1]; DU145, IE-8 pretreatment then cisplatin 1 h) | unhooking (repair) of cisplatin-produced DNA ICLs ([1]; DU145 and A549 cells, IE-8 pretreatment overnight or 1 h before cisplatin) | DNA-damage response to cisplatin (γ-H2Ax induction) (γ-H2AX) | number of colonies ([2]; 0.1 μM IE-8 + 1 μM oxaliplatin) | number of colonies ([2]; 0.1 μM IE-8 + 2 μM oxaliplatin) |
| --- | --- | --- | --- | --- | --- | --- | --- |
| 3,5-Di(3,4,5-trimethoxybenzylidene)-1-phenylpiperidin-4-one [IE-8] | did not show any effect on the microtubules | – | – | – | – | – | – |
| COc1cc(/C=C2\CN(c3ccccc3)C/C(=C\c3cc(OC)c(OC)c(OC)c3)C2=O)cc(OC)c1OC [IE-8, 3,5-Di(3,4,5-trimethoxybenzylidene)-1-phenylpiperidin-4-one] | – | induced cytoplasmic vacuolisation | up to 48 h | impairs the ‘unhooking’ of the cisplatin-produced ICLs | enhanced | about 60 | Less than 25 |
